According to patent US12377069B2, “Compounds, compositions, methods of using, and methods for preparing compounds” (UNIVERSITY OF LOUISVILLE RESEARCH FOUNDATION, INC., priority 2018, dated 2025):
“Also recorded” adds a separate entry of the source.

How the values were obtained:
[1] = test system: C57BL/6 mice; test: TNBS-induced colitis; type: in vivo, mouse; conditions: for colitis phenotype, therapeutic regimen: 20 mg/kg from 24 h post-TNBS; for TNBS-induced colon shortening and colonic inflammation, pre-treatment / barrier function, pre-treatment: oral 20 mg/kg daily one week before TNBS, none after
[2] = test system: Caco2 or HT29 cells; test: In vitro FITC-dextran permeability assay; type: cell-based, human; conditions: pretreatment 50 μM 24 h; LPS 50 ng/ml 2 h
Protocol: In vitro permeability study: For in vitro cellular permeability studies, Caco2 cells or HT29 cells (2×10^4 cells/cm^2) were seeded in 24-well Transwell® plates (Cornings; USA), on polyester membrane filters (pore size 0.4 μm, surface area 1.12 cm^2) (KOWAPRADIT et al. (2010) “In vitro permeability enhancement in intestinal epithelial cells (Caco-2) monolayer of water soluble quaternary ammonium chitosan derivatives” Aaps Pharmscitech, Vol. 11, pp. 497-508). Culture medium was added to both apical and basal chamber and the medium was changed every other day up to 21 days for Caco2 cells or 5-7 days for HT29 cells. For Caco2 cells, transepethelial electrical resistance (TEER) was calculated using EMD Millipore Millicell-ERS2 Volt-Ohm Meter (Millipore). Filters (with cell monolayer) showing more than 600 Ω·cm^2 were used for permeability study. After cells reach desired confluence (monolayered cells), cells were pre-treated with vehicle (0.01% DMSO) UroA (50 μM) and UAS03 […] for 24 hours. After treatment, monolayer was washed with PBS to remove any residual drug and 200 μL of LPS (50 ng/ml in HBSS) was added to each well and incubated for 2 hours. […] After 2 h, a sample from the basal chamber was withdrawn and FD4 concentration was determined using fluorescence 96-wells plate reader at excitation and emission wavelengths were 480 and 525 nm, respectively.

[3] = test system: T84 cells; test: EtOH-induced internalization of junction proteins; type: cell-based; conditions: 50 μM 1 h, then EtOH 40 mM 6 h
Excerpt: The membrane and cytosolic fractions were isolated and evaluated for tight junction (TJ) and adherins junction (AJ) and desmosomes. […] (i.e., EtOH treatment alone has more cytosolic protein and EtOH+UroA has more membrane fraction) (FIG. 20).

[4] = test system: mouse bone marrow derived macrophages (BMDMs); test: LPS-induced IL-6 and TNF-α in BMDM; type: cell-based; conditions: for LPS-induced IL-6 production in AhR^−/− macrophages: AhR^−/− BMDM, up to 30 NM; for LPS induced IL-6 and TNF-α: 0.1-50 μM; for IL-6 in Nrf2^−/− (fold reduction; TNBS model and LPS-induced BMDM): Nrf2^−/− vs WT
Protocol: Measurements of IL-6 and TNF-α in BMDM: BMDM were plated in 96 (10,000 cells/well) and 12 wells (0.1×10^6 cells/well) plate for ELISA and RNA isolation. To evaluate the anti-inflammatory properties, BMDMs were stimulated with E. coli-derived lipopolysaccharides (LPS; 055:B5; Sigma) at 50 ng/mL concentration for six hours alone or in combination with UroA or UAS03 at indicated concentrations (0.01, 0.1, 1, 10, 25, 50 μM) in quadruplicates. For cytokine production via ELISA, the supernatant was collected and centrifuged at 10,000×g for 10 min at 4° C. to pellet down any cell and cytokines were quantified using IL-6 and TNF-α specific ELISA kit (Biolegend) following manufacturer's instruction.
Screening for anti-inflammatory activities: Mouse bone marrow derived macrophages (BMDM) were plated in 96 wells plate for ELISA. To evaluate the anti-inflammatory properties, BMDMs were stimulated with E. coli-derived lipopolysaccharides (LPS; 055:B5; Sigma) at 50 ng/mL concentration for six hours alone or in combination with compounds at indicated concentrations in quadruplicates. For cytokine production via ELISA, the supernatant was collected and centrifuged at 12,000 rpm for 10 min at 4° C. to pellet down any cell and cytokines were quantified using IL-6 and TNF-α specific ELISA kit (Biolegend) following manufacturer's instruction. LPS induced IL-6 or TNF-α considered as 100%.

[5] = test system: colon cancer cell line (SW480); conditions: human
[6] = target: T1, breast cancer resistance protein (BCRP) (Homo sapiens, UniProt Q9UNQ0); test: BCRP drug efflux activity; type: cell-based; conditions: colon cancer cell lines
T1 construct: endogenous in cells
Excerpt: (§1) Therefore, blocking its activity and/or downregulating the expression of BCRP, P-gp could reverse the effect and sensitize the cancer cells.

[7] = target: P-glycoprotein (P-gp) (Homo sapiens, UniProt P08183)
Excerpt: as §1

[8] = test system: Snail transgenic mice; test: Scleroderma model in Snail transgenic mice; type: in vivo, mouse
Protocol: UAS03 attenuates Scleroderma associated vascular permeability in Snail transgenic mice. Calorimetric quantification of Evan's blue dye extracted from back skin using UV spectrophotometer. […] Animals treated with UAS03 show more than 3-fold reduction in the dye leakage (FIG. 24).
Expression for fibrosis associated genes in the back skin of the Snail transgenic mice. The mRNA levels of the Collagen 1 were measured in back skin using RT-qPCR. […] The expression in UAS03 treated group, in both males and females, were reduced. The levels were separately assessed in males and females in vehicle and drug treated animals (FIG. 25).

P-glycoprotein (P-gp), sequence (P08183 whole entry): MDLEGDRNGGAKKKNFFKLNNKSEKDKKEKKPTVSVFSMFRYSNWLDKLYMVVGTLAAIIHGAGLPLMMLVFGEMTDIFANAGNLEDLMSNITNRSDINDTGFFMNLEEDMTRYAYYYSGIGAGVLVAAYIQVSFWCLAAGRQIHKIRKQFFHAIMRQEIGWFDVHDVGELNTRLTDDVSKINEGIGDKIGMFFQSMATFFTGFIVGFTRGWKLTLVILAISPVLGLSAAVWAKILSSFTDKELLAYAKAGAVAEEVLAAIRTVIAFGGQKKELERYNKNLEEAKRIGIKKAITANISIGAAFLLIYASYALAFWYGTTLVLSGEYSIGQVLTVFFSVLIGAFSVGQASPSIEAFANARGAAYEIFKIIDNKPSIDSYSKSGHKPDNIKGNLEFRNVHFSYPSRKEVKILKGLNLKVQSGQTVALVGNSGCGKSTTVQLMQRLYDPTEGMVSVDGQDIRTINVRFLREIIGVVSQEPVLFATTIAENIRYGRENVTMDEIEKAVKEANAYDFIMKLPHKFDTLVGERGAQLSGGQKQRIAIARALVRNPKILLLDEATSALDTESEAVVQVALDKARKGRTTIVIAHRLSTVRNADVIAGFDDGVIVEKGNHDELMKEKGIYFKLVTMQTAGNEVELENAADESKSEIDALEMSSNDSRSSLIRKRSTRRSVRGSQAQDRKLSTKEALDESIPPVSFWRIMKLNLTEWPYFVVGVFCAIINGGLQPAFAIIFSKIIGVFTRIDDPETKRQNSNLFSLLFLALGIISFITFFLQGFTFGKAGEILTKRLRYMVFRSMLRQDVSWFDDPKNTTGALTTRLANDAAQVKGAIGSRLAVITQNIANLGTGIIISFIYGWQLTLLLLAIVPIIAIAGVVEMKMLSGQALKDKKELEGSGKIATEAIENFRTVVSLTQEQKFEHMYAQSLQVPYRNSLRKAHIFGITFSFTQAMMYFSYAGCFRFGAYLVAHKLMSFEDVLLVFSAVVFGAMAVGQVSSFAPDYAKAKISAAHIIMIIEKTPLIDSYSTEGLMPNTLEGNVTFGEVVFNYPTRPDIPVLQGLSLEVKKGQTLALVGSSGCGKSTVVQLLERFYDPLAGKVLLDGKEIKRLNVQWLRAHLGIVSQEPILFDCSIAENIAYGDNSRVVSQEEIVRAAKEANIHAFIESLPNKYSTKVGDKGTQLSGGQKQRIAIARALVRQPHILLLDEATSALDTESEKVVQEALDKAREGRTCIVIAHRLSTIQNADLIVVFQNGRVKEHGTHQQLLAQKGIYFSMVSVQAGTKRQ
T1 sequence (Q9UNQ0 whole entry): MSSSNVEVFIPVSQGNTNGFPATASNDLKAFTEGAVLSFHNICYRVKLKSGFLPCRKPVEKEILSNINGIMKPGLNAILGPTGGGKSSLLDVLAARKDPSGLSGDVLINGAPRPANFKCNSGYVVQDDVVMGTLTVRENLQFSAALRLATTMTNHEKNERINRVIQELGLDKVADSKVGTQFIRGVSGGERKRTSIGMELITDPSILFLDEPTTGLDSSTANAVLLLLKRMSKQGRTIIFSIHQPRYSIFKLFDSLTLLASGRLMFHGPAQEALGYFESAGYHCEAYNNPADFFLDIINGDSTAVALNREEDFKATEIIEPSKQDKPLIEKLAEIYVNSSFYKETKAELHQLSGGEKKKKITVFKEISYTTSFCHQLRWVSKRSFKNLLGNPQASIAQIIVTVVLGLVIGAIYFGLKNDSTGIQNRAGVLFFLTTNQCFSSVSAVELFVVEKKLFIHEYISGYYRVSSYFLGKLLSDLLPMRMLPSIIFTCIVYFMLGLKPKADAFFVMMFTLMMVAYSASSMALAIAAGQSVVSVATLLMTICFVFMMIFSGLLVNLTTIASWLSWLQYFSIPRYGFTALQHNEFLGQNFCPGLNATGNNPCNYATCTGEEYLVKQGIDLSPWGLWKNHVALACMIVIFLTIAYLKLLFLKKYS

| SMILES | colitis phenotype, therapeutic regimen [1] | TNBS-induced colon shortening and colonic inflammation, pre-treatment [1] | barrier function, pre-treatment [1] | LPS induced leakage of FITC-dextran into bottom chambers [2] | EtOH-induced internalization of membrane junction proteins to cytosol [3] | LPS-induced IL-6 production in AhR^−/− macrophages [4] | LPS induced IL-6 and TNF-α ([4]; LPS 50 ng/ml, 6 h) | IL-6 in Nrf2^−/− (fold reduction; TNBS model and LPS-induced BMDM) [4] | cell viability in combination with 5FU [5] [%] | BCRP drug efflux activity [6] | drug efflux activity of P-glycoprotein (P-gp) [7] | efflux of Rh123 ([7]; 50 μM) | reduction in Evan's blue dye leakage in back skin ([8]; Snail transgenic mice) | Collagen 1 mRNA expression in back skin ([8]; males and females, RT-qPCR) | anti-inflammatory activities (LPS-induced IL-6 and TNF-α), analogue screening ([4]; LPS 50 ng/mL, six hours, compared UroA) | concentrations showing anti-inflammatory activities ([4]; LPS 50 ng/ml, 6 h) |
| --- | --- | --- | --- | --- | --- | --- | --- | --- | --- | --- | --- | --- | --- | --- | --- | --- |
| O=c1oc2cc(O)ccc2c2ccc(O)cc12 [UroA, 3,8-dihydroxy-6H-dibenzo[b,d]pyran-6-one] | reversed the colitis phenotype | protected | enhanced barrier function | inhibited LPS induced leakage | protected from EtOH-induced internalization | did not block | decreased | reduced IL-6 in Nrf2^−/− similar to WT | 69 | decreased drug efflux activities; also recorded: reduced the BCRP activity | decreased drug efflux activities | blocked efflux of Rh123 | – | – | – | – |
| Oc1ccc2c(c1)COc1cc(O)ccc1-2 [UAS03, 6H-benzo[c]chromene-3,8-diol] | reversed the colitis phenotype | protected | enhanced barrier function | inhibited LPS induced leakage | – | did not block | decreased | reduced IL-6 in Nrf2^−/− similar to WT | – | – | – | – | more than 3 fold | reduced | effective anti-inflammatory compounds | nano molar concentrations |
